Reference: ChEMBL document CHEMBL1201862, “PubChem BioAssay data set” (2004)
Activity calls are given as the source filed them.

Assays:
[1] = biological target: Induced myeloid leukemia cell differentiation protein Mcl-1 (Homo sapiens, UniProt Q07820); assay type: functional
[2] = biological target: Eukaryotic translation initiation factor 4E (Mus musculus, UniProt P63073); assay: eIF4E–eIF4G protein interaction inhibitors, dose response, biochemical, TR-FRET (AID 855); assay type: functional;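 also: potency for disrupting eIF4E binding to eIF4GI seen as loss of FRET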
[3] = biological target: T1, Dual specificity protein phosphatase 6 (Rattus norvegicus, UniProt Q64346); assay type: functional;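 also: confirmatory in vitro dose-response testing of MKP-3 inhibition; recombinant His-tagged MKP-3 made in E. coli BL21 with OMFP substrate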
T1 sequence (Q64346 whole entry): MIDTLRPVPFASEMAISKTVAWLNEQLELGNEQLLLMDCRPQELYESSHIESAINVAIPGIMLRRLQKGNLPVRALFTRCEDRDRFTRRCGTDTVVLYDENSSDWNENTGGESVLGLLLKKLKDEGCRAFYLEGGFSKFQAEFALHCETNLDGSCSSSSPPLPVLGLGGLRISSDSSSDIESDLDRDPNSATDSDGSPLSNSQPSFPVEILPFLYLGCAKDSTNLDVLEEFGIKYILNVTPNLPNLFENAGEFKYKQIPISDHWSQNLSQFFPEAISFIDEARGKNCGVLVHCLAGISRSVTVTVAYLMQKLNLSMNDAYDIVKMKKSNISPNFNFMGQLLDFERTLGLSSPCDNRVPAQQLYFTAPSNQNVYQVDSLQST

Leucine aminopeptidase = biological target: T2, Leucine aminopeptidase (Plasmodium falciparum 3D7, UniProt Q8IL11); assay: P. falciparum M17LAP inhibitors, primary screen, biochemical, fluorogenic H-Leu-NHMec substrate, 1536-well (AID 1619); assay type: functional
T2 sequence (Q8IL11 whole entry): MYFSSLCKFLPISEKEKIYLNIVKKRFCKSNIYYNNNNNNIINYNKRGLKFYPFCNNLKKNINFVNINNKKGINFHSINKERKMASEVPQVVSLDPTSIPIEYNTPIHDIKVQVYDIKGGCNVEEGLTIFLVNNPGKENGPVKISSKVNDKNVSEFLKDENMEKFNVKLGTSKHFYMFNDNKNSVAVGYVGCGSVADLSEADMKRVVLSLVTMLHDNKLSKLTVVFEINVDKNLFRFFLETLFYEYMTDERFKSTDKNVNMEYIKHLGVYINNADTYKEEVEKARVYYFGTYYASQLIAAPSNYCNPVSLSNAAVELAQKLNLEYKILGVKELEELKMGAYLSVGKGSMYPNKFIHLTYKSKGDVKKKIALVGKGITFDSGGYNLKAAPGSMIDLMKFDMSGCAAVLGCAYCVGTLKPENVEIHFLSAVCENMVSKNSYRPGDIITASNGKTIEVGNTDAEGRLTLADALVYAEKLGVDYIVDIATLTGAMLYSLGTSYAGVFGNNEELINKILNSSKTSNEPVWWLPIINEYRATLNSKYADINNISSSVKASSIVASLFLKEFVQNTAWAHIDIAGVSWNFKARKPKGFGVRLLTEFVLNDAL

[4] = inhibitors of intracellular T. cruzi replication, confirmation, NIH3T3 host cells, beta-gal luminescence (AID 2044); assay type: functional, cell-based;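 also: intracellular parasites grown in NIH/3T3 mouse fibroblasts as host cells; luminescent beta-galactosidase reporter signal from transgenic T. cruzi replicating inside host cells; inhibitors lower the luminescence signal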
[5] = biological target: T3, Sentrin-specific protease 8 (Homo sapiens, UniProt Q96LD8); assay type: functional
T3 sequence (Q96LD8 whole entry): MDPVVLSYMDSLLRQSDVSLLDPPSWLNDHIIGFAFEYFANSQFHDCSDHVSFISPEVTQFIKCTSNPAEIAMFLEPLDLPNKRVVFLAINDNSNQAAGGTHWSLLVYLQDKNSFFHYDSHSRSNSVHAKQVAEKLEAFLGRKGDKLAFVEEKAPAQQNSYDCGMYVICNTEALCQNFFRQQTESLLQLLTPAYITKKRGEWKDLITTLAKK

[6] = biological target: T3, Sentrin-specific protease 8; assay type: functional; remark: listed apart in the source
[7] = biological target: Calcium/calmodulin-dependent protein kinase type II subunit gamma (Homo sapiens, UniProt Q13555); assay type: functional
Chain of Calcium/calmodulin-dependent protein kinase type II subunit gamma (Q13555 whole entry): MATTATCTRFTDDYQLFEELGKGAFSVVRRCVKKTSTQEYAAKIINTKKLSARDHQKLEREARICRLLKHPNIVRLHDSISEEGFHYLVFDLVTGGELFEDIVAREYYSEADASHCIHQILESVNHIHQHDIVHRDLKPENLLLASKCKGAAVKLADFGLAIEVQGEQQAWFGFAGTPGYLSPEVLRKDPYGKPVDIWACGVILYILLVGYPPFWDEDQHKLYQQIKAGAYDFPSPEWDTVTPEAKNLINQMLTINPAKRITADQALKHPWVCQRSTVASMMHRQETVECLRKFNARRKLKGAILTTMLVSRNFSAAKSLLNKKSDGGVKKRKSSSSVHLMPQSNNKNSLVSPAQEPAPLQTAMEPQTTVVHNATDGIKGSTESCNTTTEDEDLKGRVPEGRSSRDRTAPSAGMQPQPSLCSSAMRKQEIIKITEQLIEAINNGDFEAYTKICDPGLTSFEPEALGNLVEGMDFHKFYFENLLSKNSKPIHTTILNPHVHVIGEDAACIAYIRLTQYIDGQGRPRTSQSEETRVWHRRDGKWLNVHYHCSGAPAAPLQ

[8] = biological target: Tyrosine-protein kinase ITK/TSK (Homo sapiens, UniProt Q08881); assay type: functional;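 also: affinity for ITK measured as one member of a broad kinase panel profiling binding across the kinome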
Chain of Tyrosine-protein kinase ITK/TSK (Q08881 whole entry): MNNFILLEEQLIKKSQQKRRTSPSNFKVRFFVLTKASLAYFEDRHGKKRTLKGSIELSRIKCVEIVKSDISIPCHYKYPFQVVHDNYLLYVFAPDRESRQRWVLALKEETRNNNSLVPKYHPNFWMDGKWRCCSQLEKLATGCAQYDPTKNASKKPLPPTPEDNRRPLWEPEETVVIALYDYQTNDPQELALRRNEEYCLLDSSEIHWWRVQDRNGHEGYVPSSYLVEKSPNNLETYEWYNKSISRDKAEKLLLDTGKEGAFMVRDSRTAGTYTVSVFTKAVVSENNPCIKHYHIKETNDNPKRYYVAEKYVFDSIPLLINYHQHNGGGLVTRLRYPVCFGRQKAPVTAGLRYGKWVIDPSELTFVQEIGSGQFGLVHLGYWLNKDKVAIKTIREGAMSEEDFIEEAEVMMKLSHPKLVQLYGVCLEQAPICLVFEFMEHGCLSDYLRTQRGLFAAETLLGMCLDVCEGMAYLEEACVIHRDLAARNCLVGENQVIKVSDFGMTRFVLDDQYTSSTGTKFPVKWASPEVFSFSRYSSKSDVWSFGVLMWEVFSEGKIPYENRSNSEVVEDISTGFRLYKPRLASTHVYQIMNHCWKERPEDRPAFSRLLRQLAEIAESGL

[9] = biological target: Receptor tyrosine-protein kinase erbB-2 (Homo sapiens, UniProt P04626); assay: Navigating the Kinome. Panel member name: ERBB2; assay type: functional
[10] = biological target: Casein kinase I isoform delta (Homo sapiens, UniProt P48730); assay type: functional;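 also: measured as one member (CSNK1D) of a kinome panel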
[11] = biological target: Insulin-like growth factor 1 receptor (Homo sapiens, UniProt P08069); assay: Navigating the Kinome. Panel member name: IGF1R; assay type: functional
[12] = biological target: Mitogen-activated protein kinase 1 (Homo sapiens, UniProt P28482); assay type: functional
Chain of Mitogen-activated protein kinase 1 (P28482 whole entry): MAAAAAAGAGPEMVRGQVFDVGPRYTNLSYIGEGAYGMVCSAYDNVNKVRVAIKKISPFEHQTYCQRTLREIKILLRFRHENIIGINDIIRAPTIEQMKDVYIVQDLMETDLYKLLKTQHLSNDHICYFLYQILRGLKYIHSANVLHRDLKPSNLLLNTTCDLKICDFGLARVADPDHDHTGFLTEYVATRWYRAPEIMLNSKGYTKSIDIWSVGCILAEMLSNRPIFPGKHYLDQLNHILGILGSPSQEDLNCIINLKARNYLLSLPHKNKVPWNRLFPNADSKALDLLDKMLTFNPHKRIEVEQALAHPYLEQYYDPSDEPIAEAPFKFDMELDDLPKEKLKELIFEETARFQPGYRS

Misshapen-like kinase 1 = Misshapen-like kinase 1 (Homo sapiens, UniProt Q8N4C8); assay type: functional;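 also: kinome panel screen with MINK as the panel member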
[13] = biological target: Homeodomain-interacting protein kinase 4 (Homo sapiens, UniProt Q8NE63); assay type: functional
[14] = biological target: Cyclin-dependent kinase 7 (Homo sapiens, UniProt P50613); assay type: functional;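 also: value comes from a kinome-wide kinase profiling panel in which CDK7 is one member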
Chain of Cyclin-dependent kinase 7 (P50613 whole entry): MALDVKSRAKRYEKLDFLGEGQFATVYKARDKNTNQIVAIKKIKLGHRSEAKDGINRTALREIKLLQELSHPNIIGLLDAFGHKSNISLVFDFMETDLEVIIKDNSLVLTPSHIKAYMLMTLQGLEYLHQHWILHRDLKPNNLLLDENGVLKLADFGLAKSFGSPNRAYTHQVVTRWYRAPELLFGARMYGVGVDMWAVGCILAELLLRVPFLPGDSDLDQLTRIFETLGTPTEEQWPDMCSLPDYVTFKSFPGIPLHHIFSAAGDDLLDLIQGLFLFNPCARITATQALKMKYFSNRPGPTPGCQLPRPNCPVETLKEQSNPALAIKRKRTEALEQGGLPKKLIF

[15] = biological target: Vascular endothelial growth factor receptor 1 (Homo sapiens, UniProt P17948); assay type: functional;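 also: measured within a kinome-wide profiling panel, FLT1 as the panel member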
Chain of Vascular endothelial growth factor receptor 1 (P17948 whole entry): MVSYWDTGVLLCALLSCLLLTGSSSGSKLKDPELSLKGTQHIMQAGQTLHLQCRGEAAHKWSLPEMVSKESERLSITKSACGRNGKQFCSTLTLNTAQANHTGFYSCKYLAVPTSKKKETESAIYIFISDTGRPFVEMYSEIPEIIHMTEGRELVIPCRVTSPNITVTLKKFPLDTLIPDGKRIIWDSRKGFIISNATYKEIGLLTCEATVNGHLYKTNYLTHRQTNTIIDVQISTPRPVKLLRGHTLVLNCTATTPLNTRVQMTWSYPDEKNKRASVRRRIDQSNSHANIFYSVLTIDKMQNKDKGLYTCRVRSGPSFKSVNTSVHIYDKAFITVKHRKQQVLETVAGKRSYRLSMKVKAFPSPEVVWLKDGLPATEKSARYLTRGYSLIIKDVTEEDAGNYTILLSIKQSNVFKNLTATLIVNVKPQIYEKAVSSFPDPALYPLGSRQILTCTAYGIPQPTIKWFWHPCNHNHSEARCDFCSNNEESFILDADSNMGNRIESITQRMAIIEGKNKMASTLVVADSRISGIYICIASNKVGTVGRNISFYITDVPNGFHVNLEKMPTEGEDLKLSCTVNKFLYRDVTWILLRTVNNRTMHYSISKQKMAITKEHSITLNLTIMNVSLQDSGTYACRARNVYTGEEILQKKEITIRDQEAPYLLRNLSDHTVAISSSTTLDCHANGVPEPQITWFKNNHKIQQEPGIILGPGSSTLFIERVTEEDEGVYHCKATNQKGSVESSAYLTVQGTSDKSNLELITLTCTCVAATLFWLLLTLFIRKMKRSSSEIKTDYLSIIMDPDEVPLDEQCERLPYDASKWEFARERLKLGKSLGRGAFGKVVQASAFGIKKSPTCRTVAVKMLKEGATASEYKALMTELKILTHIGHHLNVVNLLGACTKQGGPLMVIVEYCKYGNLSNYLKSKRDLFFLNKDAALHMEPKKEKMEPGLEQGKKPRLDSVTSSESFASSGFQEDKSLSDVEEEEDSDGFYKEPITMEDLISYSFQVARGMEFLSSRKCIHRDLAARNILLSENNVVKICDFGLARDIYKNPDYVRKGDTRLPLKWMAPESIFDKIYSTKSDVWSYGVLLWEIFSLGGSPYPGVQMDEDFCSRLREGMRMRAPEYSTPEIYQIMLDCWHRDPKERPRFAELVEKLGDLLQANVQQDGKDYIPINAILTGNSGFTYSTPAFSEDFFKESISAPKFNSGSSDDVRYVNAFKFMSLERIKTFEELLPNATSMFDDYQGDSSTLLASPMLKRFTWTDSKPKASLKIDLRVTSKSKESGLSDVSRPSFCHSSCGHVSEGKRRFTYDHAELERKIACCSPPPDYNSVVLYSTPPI

[16] = biological target: Mitogen-activated protein kinase 12 (Homo sapiens, UniProt P53778); assay type: functional;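 also: measured as one member of a kinome-wide kinase profiling panel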
[17] = biological target: Serine/threonine-protein kinase MRCK alpha (Homo sapiens, UniProt Q5VT25); assay type: functional
Chain of Serine/threonine-protein kinase MRCK alpha (Q5VT25 whole entry): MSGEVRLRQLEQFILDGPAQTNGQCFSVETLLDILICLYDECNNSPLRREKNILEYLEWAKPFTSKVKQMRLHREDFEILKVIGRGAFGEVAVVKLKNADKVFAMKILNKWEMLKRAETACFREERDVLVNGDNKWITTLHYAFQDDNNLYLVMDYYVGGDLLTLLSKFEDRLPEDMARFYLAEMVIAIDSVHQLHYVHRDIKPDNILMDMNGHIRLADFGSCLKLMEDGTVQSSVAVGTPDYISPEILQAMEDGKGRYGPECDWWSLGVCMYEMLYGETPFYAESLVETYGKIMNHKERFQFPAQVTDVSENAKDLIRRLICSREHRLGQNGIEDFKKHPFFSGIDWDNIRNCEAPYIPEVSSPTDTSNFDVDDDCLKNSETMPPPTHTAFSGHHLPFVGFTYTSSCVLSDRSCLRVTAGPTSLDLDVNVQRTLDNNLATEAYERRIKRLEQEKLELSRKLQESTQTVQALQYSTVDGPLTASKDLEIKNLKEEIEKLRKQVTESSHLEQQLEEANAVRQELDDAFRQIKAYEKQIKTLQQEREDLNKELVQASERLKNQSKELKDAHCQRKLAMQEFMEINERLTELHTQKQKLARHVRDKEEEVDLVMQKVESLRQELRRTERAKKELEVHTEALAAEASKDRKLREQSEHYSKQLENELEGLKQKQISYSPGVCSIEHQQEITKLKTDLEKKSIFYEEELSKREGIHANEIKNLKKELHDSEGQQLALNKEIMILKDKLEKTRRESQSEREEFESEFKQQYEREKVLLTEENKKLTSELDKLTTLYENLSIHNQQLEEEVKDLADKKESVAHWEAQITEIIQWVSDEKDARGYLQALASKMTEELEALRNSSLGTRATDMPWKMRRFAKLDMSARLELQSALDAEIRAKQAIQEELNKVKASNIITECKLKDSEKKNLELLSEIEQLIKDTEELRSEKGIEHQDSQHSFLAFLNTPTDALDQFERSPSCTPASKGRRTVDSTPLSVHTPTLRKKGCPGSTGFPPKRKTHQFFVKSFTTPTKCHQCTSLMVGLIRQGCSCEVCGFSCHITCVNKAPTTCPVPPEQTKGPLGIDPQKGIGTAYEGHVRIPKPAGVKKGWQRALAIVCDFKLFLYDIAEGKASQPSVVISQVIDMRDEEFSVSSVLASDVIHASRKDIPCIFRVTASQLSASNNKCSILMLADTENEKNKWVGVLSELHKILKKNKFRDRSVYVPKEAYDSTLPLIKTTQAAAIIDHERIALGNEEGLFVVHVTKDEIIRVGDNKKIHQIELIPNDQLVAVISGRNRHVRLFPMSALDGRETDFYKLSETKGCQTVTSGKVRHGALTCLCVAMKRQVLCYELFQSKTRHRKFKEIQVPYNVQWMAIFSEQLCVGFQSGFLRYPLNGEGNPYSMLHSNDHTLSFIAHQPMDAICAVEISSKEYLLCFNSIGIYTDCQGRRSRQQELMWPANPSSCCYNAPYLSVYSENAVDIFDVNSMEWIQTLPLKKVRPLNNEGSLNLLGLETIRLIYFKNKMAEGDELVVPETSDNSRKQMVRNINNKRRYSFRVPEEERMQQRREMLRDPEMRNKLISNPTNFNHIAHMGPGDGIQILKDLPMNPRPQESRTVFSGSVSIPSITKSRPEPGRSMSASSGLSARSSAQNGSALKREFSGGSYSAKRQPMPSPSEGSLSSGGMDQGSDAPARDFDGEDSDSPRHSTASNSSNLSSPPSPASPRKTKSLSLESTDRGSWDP

Protein skinhead-1 = biological target: T4, Protein skinhead-1 (Caenorhabditis elegans, UniProt P34707); assay type: functional
T4 sequence (P34707 whole entry): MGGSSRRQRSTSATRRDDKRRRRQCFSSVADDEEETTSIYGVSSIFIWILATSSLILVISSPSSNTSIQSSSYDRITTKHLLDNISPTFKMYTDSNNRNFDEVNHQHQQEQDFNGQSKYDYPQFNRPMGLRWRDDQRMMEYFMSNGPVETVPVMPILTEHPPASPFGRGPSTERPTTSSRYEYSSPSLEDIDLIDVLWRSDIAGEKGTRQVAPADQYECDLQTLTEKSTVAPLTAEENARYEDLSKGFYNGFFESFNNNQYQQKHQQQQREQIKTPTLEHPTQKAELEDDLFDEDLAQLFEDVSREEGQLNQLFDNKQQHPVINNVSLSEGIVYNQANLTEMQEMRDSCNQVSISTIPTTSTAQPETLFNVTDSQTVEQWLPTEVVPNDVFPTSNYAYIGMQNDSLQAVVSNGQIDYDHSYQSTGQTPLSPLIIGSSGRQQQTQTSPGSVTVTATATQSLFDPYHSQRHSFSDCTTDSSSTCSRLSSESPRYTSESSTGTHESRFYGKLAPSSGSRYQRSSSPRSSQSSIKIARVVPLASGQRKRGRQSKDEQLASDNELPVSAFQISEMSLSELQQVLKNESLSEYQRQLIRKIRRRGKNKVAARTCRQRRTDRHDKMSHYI

O=C(O)C1Nc2c(O)cc(Cl)c([N+](=O)[O-])c2C2C=CCC12 (stereo not drawn)
IC50 [1]: > 54000 nM (active) | IC50 [2]: 5210 nM (active) | IC50 [3]: 35400 nM (active)

O=C1N=C(NS(=O)(=O)Cc2ccccc2)S/C1=C1\C(=O)Nc2ccccc21
IC50 (Leucine aminopeptidase): 26700 nM (active)

O=C(CCc1ccccc1)NNc1cc(N2CCCCC2)nc(N2CCCCC2)n1
EC50 [4]: 3740 nM (active) | IC50 [5]: 605 nM (active) | IC50 [6]: 1010 nM (active)

Cc1n[nH]c2ccc(-c3cncc(OCC(N)Cc4cccc(Cl)c4)c3)cc12 (stereo not drawn)
Ki [7]: 3.98 nM (active) | pKi [7]: 8.4 | Ki [8]: > 1580 nM (inactive) | Ki [9]: > 1580 nM (inactive) | Ki [10]: 31.6 nM (active) | Ki [11]: > 2000 nM (inactive) | Ki [12]: 79.4 nM (active) | Ki (Misshapen-like kinase 1): 25.1 nM (active) | Ki [13]: 1580 nM (active) | Ki [14]: 20 nM (active) | pKi [14]: 7.7 | Ki [15]: > 398 nM (inactive) | Ki [16]: 398 nM (active) | Ki [17]: 7.94 nM (active) | pKi [17]: 8.1

Clc1ccc2nc(-c3ccc(Br)s3)cn2c1
IC50 (Protein skinhead-1): 57500 nM (inactive)
